In patent publication US20250179057A1, “MEK IMMUNE ONCOLOGY INHIBITORS AND THERAPEUTIC USES THEREOF” (Immuneering Corporation, priority 2022, published 2025):
Values belong to the compound of their own block, whether it stands above or below them.

Key:
CYP2C8 = biological target: T1, CYP2C8 (Homo sapiens, UniProt P10632); assay: in vitro; settings: pooled liver microsomes, pH 7.4, probe amodiaquine
T1 sequence (P10632 1-490): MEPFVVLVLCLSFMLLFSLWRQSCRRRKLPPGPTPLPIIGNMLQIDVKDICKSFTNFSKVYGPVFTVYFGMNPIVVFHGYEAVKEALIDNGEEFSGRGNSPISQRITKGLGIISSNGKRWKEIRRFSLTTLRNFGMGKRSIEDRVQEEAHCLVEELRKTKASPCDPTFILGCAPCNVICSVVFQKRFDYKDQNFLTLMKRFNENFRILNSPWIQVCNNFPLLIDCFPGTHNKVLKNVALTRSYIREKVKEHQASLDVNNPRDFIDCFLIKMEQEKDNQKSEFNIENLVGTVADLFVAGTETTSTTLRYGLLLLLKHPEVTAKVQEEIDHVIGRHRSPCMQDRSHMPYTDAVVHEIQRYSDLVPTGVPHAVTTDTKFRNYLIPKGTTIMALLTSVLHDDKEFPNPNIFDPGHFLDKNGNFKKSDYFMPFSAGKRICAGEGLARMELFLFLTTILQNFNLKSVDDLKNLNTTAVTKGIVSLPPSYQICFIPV

[1] = Plasma stability, human plasma (K2EDTA); type: in vitro ADME
Experimental: (§1) Individual stock solutions of propantheline and lovastatin were prepared at 10 mM in DMSO and were further diluted to 2 mM with DMSO.
(§2) Frozen matrices (Balb/c mouse, Wistar Han rat, Beagle dog, and human plasma containing K2EDTA as anti-coagulant) were thawed and centrifuged at 3100 rpm for 10 minutes at 4° C. to remove particulates. The lipid layer was then removed, and the supernatant was transferred to a new tube without disturbing the pellet. After the matrices were incubated at 37° C. for at least 10 minutes, the pH of each matrix was adjusted to pH 7.4, using 10% phosphoric acid or 1N sodium hydroxide as necessary. Test and control article stock solutions were spiked (2 μL) into matrix (1.998 mL) and mixed to final assay concentration of […]. Duplicate 30-μL aliquots of spiked plasma were transferred to matrix tubes in 96-well plate immediately after spiking for timepoints of 0, 30, 60, 120, 240, and 360 minutes. These tubes were then incubated at 37° C. with shaking and at each timepoint, the corresponding tubes containing samples were quenched with 180 μL of cold acetonitrile containing the internal standards. The quenched samples were vortex-mixed briefly and stored refrigerated. After the final time point (360 minutes), the plates with all quenched samples were vortex-mixed for 10 minutes and then centrifuged at 3100 rpm for 10 minutes at 4° C. to sediment the precipitated protein. The supernatant (50 μL) was transferred to a clean 96-well plate and diluted with 100 μL of water. The plates were stored refrigerated until analysis.
(§3) Data Analysis: Peak area ratios for IS-normalized test article and control article counts were used to calculate the percent remaining relative to the time zero (T0) value. As appropriate, results were plotted and further analyzed to calculate half-life (T1/2) values.
(§4) Mean peak area ratios were used to calculate the % remaining relative to the T0 value:
(§5) In this study, human, cynomolgus monkey, beagle dog, wistar hannover rat, and balb/c plasma stability was determined. Table 28 describes the results of the human plasma stability at 2 μM concentration and anti-coagulant K2-EDTA from 10 to 120 min. Table 29 describes the results of the cynomolgus monkey plasma stability at 2 μM concentration and anti-coagulant K2-EDTA. Table 30 describes the results of the beagle dog plasma stability at 2 μM concentration and anti-coagulant K2-EDTA. Table 31 describes the results of the wistar hannover rat plasma stability at 2 μM concentration and anti-coagulant K2-EDTA. Table 32 describes the results of the balb/c plasma stability at 2 μM concentration and anti-coagulant K2-EDTA.

[2] = Plasma stability, beagle dog plasma (K2EDTA); type: in vitro ADME
Experimental: as §1, §2, §3, §4, §5

[3] = Plasma stability, mouse plasma (Balb/c; Table 5 head CD-1 Mouse); type: in vitro ADME; settings: 2 μM
[4] = tested on: phospho-ERK in A549 (KRAS G12S) cells; assay: Cell-based pERK (pERK:tERK) in A549 cells
Outline: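 Readout was pERK versus tERK by Western blot with IRDye-labelled secondary antibodies, imaged and quantified on a LI-COR Odyssey. Lysates were loaded at 1 mg/mL protein after Bradford estimation.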

[5] = tested on: phospho-MEK in A549 cells; assay: Cell-based pMEK (pMEK:tMEK, CRAF bypass) in A549 cells; settings: 2 h, pMEK to total MEK normalized to DMSO control
Outline: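 Cells (A549 or A375) exposed 2 h to compounds at varying concentrations in duplicate, then lysed; lysates set to 1.5 mg/mL for pMEK by quantitative Western (Jess). Phospho-MEK/total MEK ratio normalized to DMSO control.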

[6] = Kinetic solubility (PBS pH 7.4; 4 hr); type: physicochemical; settings: PBS pH = 7.4; 4 hr (Table 8)
Experimental: The plates were shaken for 4 h at room temperature in an Eppendorf Thermomixer. After incubation, the plates were centrifuged for 20 minutes at 4680 rpm. From the supernatant, 150 μL was transferred to a new 96 well plate and 50 μL DMSO was added to ensure continued dissolution. Samples were measured on LC-UV at injection volumes of 1 and 8 μL. Peak areas were determined and compared to peak areas obtained using calibration curves of the test compounds in DMSO.

[7] = eLogD (lipophilicity; pH 7.4) by HPLC; type: physicochemical
Experimental: Test compounds were dissolved in DMSO at a concentration of 10 mM and further diluted with methanol:water 1:1. Samples were analyzed using gradient HPLC with three different isocratic mobile phases of 0.25% octanol in methanol (60, 65 and 70%) and 20 mM MOPS buffer (pH 7.4) with decylamine. If needed, (for low E log Doct compounds) the isocratic mobile phases were adjusted to e.g. 40, 45 and 50% methanol. Peaks were detected using a diode array at absorbance 220-320 nm.
Capacity factors data (k′_=(tr−_t0)/t0) obtained at various amounts of methanol were extrapolated to 0% methanol and k′w values are determined using a linear procedure. E log Doct (7.4) is calculated using a series of reference standards with known Log D values. Each experiment was performed in triplicate.

PAMPA (pH 7.4) = type: in vitro ADME; settings: pH = 7.4
[8] = Mouse liver microsome stability (t1/2, Clint); settings: 1 μM; 0.5 mg/ml microsomal protein
[9] = Human liver microsome stability (t1/2, Clint); settings: 1 μM; 0.5 mg/ml microsomal protein
in vitro = settings: human
CYP2C19 = CYP2C19 (Homo sapiens, UniProt P33261); assay: in vitro; settings: pooled liver microsomes, pH 7.4, probe mephenytoin
[10] = Guo et al Lancet Oncol. 2020; cited from earlier work
[11] = Plasma stability, cynomolgus monkey plasma (K2-EDTA); type: in vitro ADME
Experimental: as §1, §2, §3, §4, §5

[12] = Plasma stability, rat plasma (Wistar Han / wistar hannover; Table 5 head SD Rat); type: in vitro ADME; settings: Wistar Hannover, rat, plasma, pH 7.4
Experimental: as §1, §2, §3, §4, §5

[13] = Plasma stability, mouse plasma (Balb/c; Table 5 head CD-1 Mouse); type: in vitro ADME; settings: BALB/c, mouse, plasma, pH 7.4
Experimental: as §1, §2, §3, §4, §5

Chain of CYP2C19 (P33261 whole entry): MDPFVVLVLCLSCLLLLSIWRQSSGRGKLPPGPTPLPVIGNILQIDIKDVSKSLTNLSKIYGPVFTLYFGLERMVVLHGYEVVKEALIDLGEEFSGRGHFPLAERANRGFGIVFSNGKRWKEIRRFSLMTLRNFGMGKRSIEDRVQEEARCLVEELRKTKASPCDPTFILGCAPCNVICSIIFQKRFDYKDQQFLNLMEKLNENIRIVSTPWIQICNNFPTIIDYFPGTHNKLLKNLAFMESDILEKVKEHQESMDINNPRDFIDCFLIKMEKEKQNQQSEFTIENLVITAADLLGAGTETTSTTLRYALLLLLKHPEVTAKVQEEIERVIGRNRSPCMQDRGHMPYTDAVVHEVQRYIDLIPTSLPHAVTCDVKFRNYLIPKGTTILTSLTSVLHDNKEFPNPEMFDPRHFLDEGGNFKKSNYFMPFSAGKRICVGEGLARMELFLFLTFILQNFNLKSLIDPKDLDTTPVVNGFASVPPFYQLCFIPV

- inhibition at 30 min, 10 µM (CYP2C8): 88.3%
SMILES: O=c1c(O)c(-c2ccc(O)c(O)c2)oc2cc(O)cc(O)c12 [Quercetin, reference compound]

- Human (% Reamining @2 hour) ([1]; 2 μM, plasma, 2 hour): 81.8%
- Beagle Dog (% Reamining @2 hour) ([2]; 2 μM, plasma, 2 hour): 94.1%
- CD-1 Mouse (% Reamining @2 hour) ([3]; plasma, 2 hour): 0.6%
SMILES: CC[C@H](C)C(=O)O[C@H]1C[C@@H](C)C=C2C=C[C@H](C)[C@H](CC[C@@H]3C[C@@H](O)CC(=O)O3)[C@H]21 [Lovastatin, reference compound]

SMILES: CNS(=O)(=O)Nc1cccc(Cc2c(CN3CCC3)c3cc(Cl)c(OC(=O)N(C)C)cc3oc2=O)c1F [Compound 19]
- A549-pERK (10 nM, 2 h) ([4]; 10 nM, 2 h, phospho- to total protein ratio normalized to DMSO control (Table 9)): 59.9
- IC50 ([4]; A549, 12-point dose): 0.04 to 0.05 µM
- A549-CRAF BP 100 nM, 2 h [5]: 51.9
- Kinetic Solubility (PBS pH = 7.4; 4 hr) [6]: >80 uM
- eLogD (lipophilicity; pH = 7.4) [7]: 2.9
- PAMPA (pH = 7.4; Papp 10^−6 cm/s) (PAMPA (pH 7.4)): 51 10^−6 cm/s
- Mouse Clint [8]: 26 µL/min/mg
- Mouse Microsome (t1/2 min) [8]: 0.883 h
- Human Clint [9]: 37 µL/min/mg
- Human Microsome (t1/2 min) [9]: 0.633 h

- A − B Permeability Ranking (Caco-2 cells): Lower
- A-B Permeability Ranking (Caco-2 cells): Low
- efflux ratio at 2 h, 10 μM (in vitro; Caco-2, Mean (B-A/A-B) (Efflux Ratio)): 4.06
- efflux ratio at 2 h, 10 μM (in vitro; Caco-2, Mean Efflux Ratio): 2.89
- Papp A→B at 2 h, 10 μM (in vitro; Caco-2, Mean Papp A − B (10^−6 cm/s)): 4.07 nm/s
- Papp A→B at 2 h, 10 μM (in vitro; Caco-2, Mean Papp A-B (10^-6 cm/s)): 3.47 nm/s
- Papp B→A at 2 h, 10 μM (in vitro; Caco-2, Mean Papp B − A (10^−6 cm/s)): 11.8 nm/s
- Papp B→A at 2 h, 10 μM (in vitro; Caco-2, Mean Papp B-A (10^-6 cm/s)): 14.1 nm/s
SMILES: CNC(=C[N+](=O)[O-])NCCSCc1ccc(CN(C)C)o1 [Ranitidine]

- inhibition at 30 min, 10 µM (CYP2C19): 60.7%
SMILES: COc1ccc2[nH]c([S+]([O-])Cc3ncc(C)c(OC)c3C)nc2c1 (stereo not shown) [Omeprazole, reference compound]

SMILES: CNS(=O)(=O)Nc1nccc(Cc2c(C)c3ccc(Oc4ncccn4)cc3oc2=O)c1F [VS-6766]
- mean terminal half-life [10]: 53.6 h

- Human (% Reamining @2 hour) ([1]; human, 2 h, 2 μM, pH 7.4): 5.7%
- % Remaining at T120 ([1]; human, plasma, 2 h, 2 μM, pH 7.4): 20.8%
- half-life at 2 μM ([1]; human, plasma, pH 7.4): 0.943 h
- % Remaining at T120 ([11]; 2 μM, anti-coagulant K2-EDTA, 120 min): 84.6%
- half-life at 2 μM ([11]; plasma (K2EDTA), pH 7.4, anti-coagulant K2-EDTA): 7.5 h
- Beagle Dog (% Reamining @2 hour) ([2]; beagle, dog, 2 h, 2 μM, pH 7.4): 58.4%
- % Remaining at T120 ([2]; beagle, dog, plasma, 2 h, 2 μM, pH 7.4): 71.0%
- half-life at 2 μM ([2]; beagle, dog, plasma, pH 7.4): 4.87 h
- % Remaining at T120 ([12]; 2 h, 2 μM): 115.2%
- half-life at 2 μM [12]: > 2 h
- % Remaining at T120 ([13]; 2 h, 2 μM): 37.3%
- half-life at 2 μM [13]: 1.68 h
- CD-1 Mouse (% Reamining @2 hour) ([3]; CD-1, mouse, 2 h, pH 7.4): 27.1%
SMILES: CC(C)[N+](C)(CCOC(=O)C1c2ccccc2Oc2ccccc21)C(C)C [Propantheline, reference compound]
